Active and inactive are the calls of the source. No cut-off for these calls is given here.
Legend:
Mus musculus [1] = test: Antidepressant-like activity in Swiss albino mouse assessed as decrease in immobility time at 1 mg/kg, ip measured for 5 mins by forced swimming test relative to control; format: functional, organism-based; parameters: dose 1 mg/kg
Mus musculus [2] = test: Antidepressant-like activity in Swiss albino mouse assessed as decrease in immobility time at 0.5 mg/kg, ip measured for 5 mins by forced swimming test relative to control; format: functional; details: route intraperitoneal
Mus musculus [3] = test: Neurotoxicity in Swiss albino mouse assessed as effect on locomotor activity measured as horizontal activity at 0.5 mg/kg, ip measured for 2 min at 30 min intervals for 90 mins duration by open field test relative to control; format: toxicity, organism-based; parameters: dose 0.5 mg/kg, route intraperitoneal; details: in vivo, 1.5 h
Mus musculus [4] = test: Neurotoxicity in Swiss albino mouse assessed as effect on locomotor activity measured as total distance travelled at 0.5 mg/kg, ip measured for 2 min at 30 min intervals for 90 mins duration by open field test relative to control; format: toxicity, organism-based; parameters: dose 0.5 mg/kg, route intraperitoneal; details: in vivo, 1.5 h
Mus musculus [5] = test: Neurotoxicity in Swiss albino mouse assessed as motor impairment effects at 1 mg/kg, ip measured for 30 to 180 mins duration by rotarod test relative to control; format: toxicity, organism-based; parameters: dose 1 mg/kg, route intraperitoneal; details: in vivo
Mus musculus [6] = test: Antidepressant-like activity in Swiss albino mouse assessed as decrease in immobility time at 0.5 mg/kg, ip measured for 5 mins by tail suspension test relative to control; format: functional, organism-based; parameters: dose 0.5 mg/kg
Mus musculus [7] = test: Antidepressant-like activity in Swiss albino mouse assessed as decrease in immobility time at 0.25 mg/kg, ip measured for 5 mins by forced swimming test relative to control; format: functional; details: for inhibition in vivo at 0.25 mg/kg: route intraperitoneal
Mus musculus [8] = test: Antidepressant-like activity in Swiss albino mouse assessed as decrease in immobility time at 20 mg/kg, ip measured for 5 mins by forced swimming test relative to control; format: functional; details: route intraperitoneal

SMILES	Activity (Mus musculus [1])	inhibition in vivo at 0.5 mg/kg (Mus musculus [2]) [%]	Activity (Mus musculus [6])	other results
CCC(C)c1cc(C2C(C#N)=C(N)OC3=C2C(=O)CCC3)cc2cc(-c3ccc(OC)cc3)c(=O)oc12 (centres undefined)	Active	35	–	–
COc1ccc(-c2cc3cc(C4C(C#N)=C(N)OC5=C4C(=O)CCC5)cc(C(C)(C)C)c3oc2=O)cc1OC (centres undefined)	–	-16.6	–	–
COc1ccc(-c2cc3cc(C4C(C#N)=C(N)OC5=C4C(=O)CCC5)cc(C(C)C)c3oc2=O)cc1OC (centres undefined)	Active	57.2	Active	Activity (Mus musculus [3]): Non-toxic; Activity (Mus musculus [4]): Non-toxic; Activity (Mus musculus [5]): Non-toxic; inhibition in vivo at 0.25 mg/kg (Mus musculus [7]): 49%
COc1ccc(-c2cc3cc(C4C(C#N)=C(N)OC5=C4C(=O)CC(C)(C)C5)cc(C(C)C)c3oc2=O)cc1OC (centres undefined)	Active	86.6	Active	Activity (Mus musculus [3]): Non-toxic; Activity (Mus musculus [4]): Non-toxic; Activity (Mus musculus [5]): Non-toxic; inhibition in vivo at 0.25 mg/kg (Mus musculus [7]): 41%
COc1ccc(-c2cc3cc(C4C(C#N)=C(N)OC5=C4C(=O)CCC5)cc(C(C)(C)C)c3oc2=O)cc1 (centres undefined)	Active	30.6	–	–
COc1cc(-c2cc3cc(C4C(C#N)=C(N)OC5=C4C(=O)CCC5)cc(C)c3oc2=O)cc(OC)c1OC (centres undefined)	–	5.22	–	–
CCC(C)c1cc(C2C(C#N)=C(N)OC3=C2C(=O)CC(C)(C)C3)cc2cc(-c3cc(OC)c(OC)c(OC)c3)c(=O)oc12 (centres undefined)	Active	28.2	–	–
COc1ccc(-c2cc3cc(C4C(C#N)=C(N)OC5=C4C(=O)CC(C)(C)C5)cc(C(C)(C)C)c3oc2=O)cc1OC (centres undefined)	–	22.5	–	–
COc1ccc(-c2cc3cc(C4C(C#N)=C(N)OC5=C4C(=O)CC(C)(C)C5)cc(C(C)C)c3oc2=O)cc1 (centres undefined)	Active	64.9	Active	Activity (Mus musculus [3]): Non-toxic; Activity (Mus musculus [4]): Non-toxic; Activity (Mus musculus [5]): Non-toxic; inhibition (Mus musculus [7]): inactive
COc1cc(-c2cc3cc(C4C(C#N)=C(N)OC5=C4C(=O)CC(C)(C)C5)cc(C(C)(C)C)c3oc2=O)cc(OC)c1OC (centres undefined)	–	30.1	–	–
CCC(C)c1cc(C2C(C#N)=C(N)OC3=C2C(=O)CC(C)(C)C3)cc2cc(-c3ccc(OC)cc3)c(=O)oc12 (centres undefined)	Active	26.9	–	–
COc1ccc(-c2cc3cc(C4C(C#N)=C(N)OC5=C4C(=O)CC(C)(C)C5)cc(C(C)(C)C)c3oc2=O)cc1 (centres undefined)	–	27.2	–	–
COc1cc(-c2cc3cc(C4C(C#N)=C(N)OC5=C4C(=O)CC(C)(C)C5)cc(C(C)C)c3oc2=O)cc(OC)c1OC (centres undefined)	Active	29.2	–	–
COc1cc(-c2cc3cc(C4C(C#N)=C(N)OC5=C4C(=O)CCC5)cc(C(C)C)c3oc2=O)cc(OC)c1OC (centres undefined)	–	31.9	–	–
CCC(C)c1cc(C2C(C#N)=C(N)OC3=C2C(=O)CCC3)cc2cc(-c3cc(OC)c(OC)c(OC)c3)c(=O)oc12 (centres undefined)	Active	56.1	Active	Activity (Mus musculus [3]): Non-toxic; Activity (Mus musculus [4]): Non-toxic; Activity (Mus musculus [5]): Non-toxic; inhibition (Mus musculus [7]): inactive
COc1cc(-c2cc3cc(C4C(C#N)=C(N)OC5=C4C(=O)CCC5)cc(C(C)(C)C)c3oc2=O)cc(OC)c1OC (centres undefined)	–	5.33	–	–
COc1cc(-c2cc3cc(C4C(C#N)=C(N)OC5=C4C(=O)CC(C)(C)C5)cc(C)c3oc2=O)cc(OC)c1OC (centres undefined)	–	6.37	–	–
CCC(C)c1cc(C2C(C#N)=C(N)OC3=C2C(=O)CC(C)(C)C3)cc2cc(-c3ccc(OC)c(OC)c3)c(=O)oc12 (centres undefined)	Active	57.4	Active	Activity (Mus musculus [3]): Non-toxic; Activity (Mus musculus [4]): Non-toxic; Activity (Mus musculus [5]): Non-toxic; inhibition in vivo at 0.25 mg/kg (Mus musculus [7]): 35%
CNCCC(Oc1ccc(C(F)(F)F)cc1)c1ccccc1 (centres undefined) [FLUOXETINE]	–	–	Active	inhibition in vivo at 20 mg/kg (Mus musculus [8]): 69.8%
COc1ccc(-c2cc3cc(C4C(C#N)=C(N)OC5=C4C(=O)CC(C)(C)C5)cc(C)c3oc2=O)cc1OC (centres undefined)	–	10.4	–	–
CN(C)CCCN1c2ccccc2CCc2ccccc21	–	–	Active	–
COc1ccc(-c2cc3cc(C4C(C#N)=C(N)OC5=C4C(=O)CCC5)cc(C(C)C)c3oc2=O)cc1 (centres undefined)	Active	69.7	Active	Activity (Mus musculus [3]): Non-toxic; Activity (Mus musculus [4]): Non-toxic; Activity (Mus musculus [5]): Non-toxic; inhibition (Mus musculus [7]): inactive

Source: ChEMBL document CHEMBL3351975, “Design and synthesis of new series of coumarin-aminopyran derivatives possessing potential anti-depressant-like activity” (Bioorg Med Chem Lett, 2015)
